{
  "source": "the kinase profiling compilation of Christmann-Franck et al. (2016)",
  "experiment_in_all_cases": "KINOMEscan competition binding",
  "settings_in_all_cases": "compound 10.0 µM",
  "key": {"[1]": {"biological_target": "CAMK2B (human) (UniProt Q13554)"}, "[2]": {"biological_target": "MARK3 (human) (UniProt P27448)"}, "[3]": {"biological_target": "HCK (human) (UniProt P08631)"}, "[4]": {"biological_target": "CSNK1A1 (human) (UniProt P48729)"}, "[5]": {"biological_target": "MAPK3 (human) (UniProt P27361)"}, "[6]": {"biological_target": "NTRK3 (human) (UniProt Q16288)"}, "[7]": {"biological_target": "GRK7 (human) (UniProt Q8WTQ7)", "sequence (Q8WTQ7 whole entry, looked up)": "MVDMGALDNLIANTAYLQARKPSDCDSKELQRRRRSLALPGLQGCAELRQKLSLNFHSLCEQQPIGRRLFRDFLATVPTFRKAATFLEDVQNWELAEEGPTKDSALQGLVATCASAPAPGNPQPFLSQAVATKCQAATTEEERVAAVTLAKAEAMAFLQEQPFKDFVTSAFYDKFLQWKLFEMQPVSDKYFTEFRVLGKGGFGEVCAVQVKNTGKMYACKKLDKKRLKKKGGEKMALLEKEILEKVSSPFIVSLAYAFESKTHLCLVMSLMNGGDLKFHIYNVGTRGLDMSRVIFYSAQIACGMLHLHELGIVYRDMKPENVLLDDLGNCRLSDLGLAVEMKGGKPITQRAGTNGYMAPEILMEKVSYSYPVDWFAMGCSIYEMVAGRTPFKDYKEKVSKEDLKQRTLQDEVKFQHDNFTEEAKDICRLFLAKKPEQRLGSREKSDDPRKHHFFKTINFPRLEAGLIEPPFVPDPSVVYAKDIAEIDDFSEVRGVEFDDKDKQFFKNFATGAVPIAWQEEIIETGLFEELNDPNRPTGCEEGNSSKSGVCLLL"}, "[8]": {"biological_target": "SRPK1 (human) (UniProt Q96SB4)", "sequence (Q96SB4 whole entry, looked up)": "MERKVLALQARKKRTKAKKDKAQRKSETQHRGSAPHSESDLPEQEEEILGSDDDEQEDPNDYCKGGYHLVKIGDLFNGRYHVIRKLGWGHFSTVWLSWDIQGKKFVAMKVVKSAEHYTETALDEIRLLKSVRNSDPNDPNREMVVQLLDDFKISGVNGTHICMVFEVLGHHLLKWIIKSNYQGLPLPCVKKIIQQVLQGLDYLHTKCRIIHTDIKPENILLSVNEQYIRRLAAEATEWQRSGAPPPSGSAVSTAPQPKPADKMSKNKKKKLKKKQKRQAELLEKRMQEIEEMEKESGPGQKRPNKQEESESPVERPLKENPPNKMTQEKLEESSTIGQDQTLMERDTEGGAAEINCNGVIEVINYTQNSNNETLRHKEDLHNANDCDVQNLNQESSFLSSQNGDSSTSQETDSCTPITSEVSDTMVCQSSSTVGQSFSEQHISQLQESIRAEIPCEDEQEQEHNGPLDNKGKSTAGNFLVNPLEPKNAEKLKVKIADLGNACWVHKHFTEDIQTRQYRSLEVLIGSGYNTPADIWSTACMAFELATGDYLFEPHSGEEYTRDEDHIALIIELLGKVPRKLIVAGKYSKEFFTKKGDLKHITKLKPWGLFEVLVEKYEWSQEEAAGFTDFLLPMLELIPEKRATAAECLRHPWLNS"}, "[9]": {"biological_target": "BRSK1 (human) (UniProt Q8TDC3)", "sequence (Q8TDC3 whole entry, looked up)": "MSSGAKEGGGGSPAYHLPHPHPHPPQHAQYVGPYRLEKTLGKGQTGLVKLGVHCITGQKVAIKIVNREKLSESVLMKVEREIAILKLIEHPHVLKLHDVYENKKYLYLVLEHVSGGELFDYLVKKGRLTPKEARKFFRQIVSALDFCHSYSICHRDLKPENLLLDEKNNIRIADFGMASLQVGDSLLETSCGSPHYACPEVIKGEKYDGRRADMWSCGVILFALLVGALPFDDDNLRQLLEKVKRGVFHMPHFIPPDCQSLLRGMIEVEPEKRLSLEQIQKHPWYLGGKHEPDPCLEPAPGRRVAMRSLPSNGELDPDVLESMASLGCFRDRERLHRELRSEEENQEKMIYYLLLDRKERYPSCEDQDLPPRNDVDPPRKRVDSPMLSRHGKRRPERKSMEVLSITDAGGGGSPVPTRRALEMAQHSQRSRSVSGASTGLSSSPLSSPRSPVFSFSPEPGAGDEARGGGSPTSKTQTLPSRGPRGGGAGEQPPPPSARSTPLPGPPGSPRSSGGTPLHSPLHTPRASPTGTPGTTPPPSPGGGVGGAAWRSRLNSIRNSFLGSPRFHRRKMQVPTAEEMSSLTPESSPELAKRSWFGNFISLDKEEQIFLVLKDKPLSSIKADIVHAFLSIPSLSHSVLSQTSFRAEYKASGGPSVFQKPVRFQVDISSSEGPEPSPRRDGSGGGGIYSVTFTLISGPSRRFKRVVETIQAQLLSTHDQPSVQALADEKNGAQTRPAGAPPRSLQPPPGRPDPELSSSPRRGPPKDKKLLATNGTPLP"}, "[10]": {"biological_target": "MAP4K1 (human) (UniProt Q92918)"}, "[11]": {"biological_target": "FGFR3 (human) (UniProt P22607)", "sequence (P22607 whole entry, looked up)": "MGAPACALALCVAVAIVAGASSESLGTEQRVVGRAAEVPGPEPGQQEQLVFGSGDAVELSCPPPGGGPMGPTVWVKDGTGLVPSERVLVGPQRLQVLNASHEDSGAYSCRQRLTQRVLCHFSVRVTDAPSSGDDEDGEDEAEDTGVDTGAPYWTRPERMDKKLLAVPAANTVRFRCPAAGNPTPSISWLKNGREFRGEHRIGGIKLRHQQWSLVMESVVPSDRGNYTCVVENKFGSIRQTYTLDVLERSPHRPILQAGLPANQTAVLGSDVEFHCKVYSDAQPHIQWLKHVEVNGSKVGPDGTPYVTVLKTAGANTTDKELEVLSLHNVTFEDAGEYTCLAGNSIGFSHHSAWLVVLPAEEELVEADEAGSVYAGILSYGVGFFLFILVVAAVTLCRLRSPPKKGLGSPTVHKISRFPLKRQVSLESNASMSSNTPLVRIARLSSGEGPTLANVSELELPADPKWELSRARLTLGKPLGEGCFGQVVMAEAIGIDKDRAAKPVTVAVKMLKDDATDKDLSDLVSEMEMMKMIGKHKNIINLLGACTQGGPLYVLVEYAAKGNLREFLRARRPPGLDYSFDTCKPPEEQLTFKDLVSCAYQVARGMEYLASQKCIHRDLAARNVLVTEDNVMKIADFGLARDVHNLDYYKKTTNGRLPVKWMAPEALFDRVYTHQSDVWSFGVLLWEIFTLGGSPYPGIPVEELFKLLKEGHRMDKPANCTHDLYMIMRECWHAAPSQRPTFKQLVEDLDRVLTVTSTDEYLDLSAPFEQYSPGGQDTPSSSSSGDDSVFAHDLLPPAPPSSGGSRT"}, "[12]": {"biological_target": "TYK2 JH1 catalytic (human) (UniProt P29597)"}, "[13]": {"biological_target": "PIM2 (human) (UniProt Q9P1W9)"}, "[14]": {"biological_target": "MAP3K4 (human) (UniProt Q9Y6R4)"}, "[15]": {"biological_target": "CSNK1A1L (human) (UniProt Q8N752)"}, "[16]": {"biological_target": "BLK (human) (UniProt P51451)"}, "[17]": {"biological_target": "PHKG2 (human) (UniProt P15735)"}, "[18]": {"biological_target": "MAP3K6 (human) (UniProt O95382)"}, "[19]": {"biological_target": "PAK3 (human) (UniProt O75914)"}, "[20]": {"system": "EIF2AK4 KD2 (human), Q9P2K8 [S808G]"}, "[21]": {"biological_target": "CDK14 (human) (UniProt O94921)"}, "[22]": {"biological_target": "BTK (human) (UniProt Q06187)"}, "[23]": {"biological_target": "SNRK (human) (UniProt Q9NRH2)"}, "[24]": {"biological_target": "MAP4K3 (human) (UniProt Q8IVH8)"}, "[25]": {"biological_target": "PIP4K2C (human) (UniProt Q8TBX8)"}, "[26]": {"biological_target": "MAP2K7 (human) (UniProt O14733)"}, "[27]": {"biological_target": "EPHA8 (human) (UniProt P29322)"}, "[28]": {"biological_target": "MAP3K10 (human) (UniProt Q02779)"}, "[29]": {"biological_target": "CaMK1 (human) (UniProt Q14012)", "sequence (Q14012 whole entry, looked up)": "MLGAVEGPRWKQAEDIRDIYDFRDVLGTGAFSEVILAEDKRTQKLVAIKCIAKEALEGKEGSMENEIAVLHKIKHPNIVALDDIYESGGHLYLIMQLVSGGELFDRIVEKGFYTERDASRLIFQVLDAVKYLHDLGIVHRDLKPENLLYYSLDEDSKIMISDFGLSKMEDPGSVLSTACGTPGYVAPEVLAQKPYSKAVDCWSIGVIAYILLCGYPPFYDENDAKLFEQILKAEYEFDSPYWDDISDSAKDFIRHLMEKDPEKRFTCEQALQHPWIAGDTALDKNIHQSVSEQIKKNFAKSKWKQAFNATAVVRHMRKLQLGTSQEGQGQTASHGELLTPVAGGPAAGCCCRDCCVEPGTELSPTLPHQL"}, "[30]": {"biological_target": "LIMK2 (human) (UniProt P53671)"}, "[31]": {"biological_target": "GAK (human) (UniProt O14976)"}, "[32]": {"biological_target": "YES1 (human) (UniProt P07947)", "sequence (P07947 whole entry, looked up)": "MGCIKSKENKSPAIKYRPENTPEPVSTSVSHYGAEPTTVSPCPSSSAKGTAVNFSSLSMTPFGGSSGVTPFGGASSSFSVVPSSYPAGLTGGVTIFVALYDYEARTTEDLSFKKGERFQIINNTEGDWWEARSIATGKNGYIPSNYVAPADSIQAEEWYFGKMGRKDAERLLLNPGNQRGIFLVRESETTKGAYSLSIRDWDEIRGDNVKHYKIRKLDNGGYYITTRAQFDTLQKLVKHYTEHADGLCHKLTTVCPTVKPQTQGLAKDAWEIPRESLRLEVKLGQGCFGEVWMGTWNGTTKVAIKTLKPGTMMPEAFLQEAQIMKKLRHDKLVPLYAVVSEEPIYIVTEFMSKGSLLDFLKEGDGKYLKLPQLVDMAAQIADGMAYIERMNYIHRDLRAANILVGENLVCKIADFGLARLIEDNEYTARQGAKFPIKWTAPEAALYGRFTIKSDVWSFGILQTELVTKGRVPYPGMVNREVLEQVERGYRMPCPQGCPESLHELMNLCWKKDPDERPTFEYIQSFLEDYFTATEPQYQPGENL"}, "[33]": {"biological_target": "LIMK1 (human) (UniProt P53667)"}, "[34]": {"biological_target": "DAPK3 (human) (UniProt O43293)"}, "[35]": {"biological_target": "CDC42BPA (human) (UniProt Q5VT25)"}, "[36]": {"biological_target": "SRPK2 (human) (UniProt P78362)", "sequence (P78362 whole entry, looked up)": "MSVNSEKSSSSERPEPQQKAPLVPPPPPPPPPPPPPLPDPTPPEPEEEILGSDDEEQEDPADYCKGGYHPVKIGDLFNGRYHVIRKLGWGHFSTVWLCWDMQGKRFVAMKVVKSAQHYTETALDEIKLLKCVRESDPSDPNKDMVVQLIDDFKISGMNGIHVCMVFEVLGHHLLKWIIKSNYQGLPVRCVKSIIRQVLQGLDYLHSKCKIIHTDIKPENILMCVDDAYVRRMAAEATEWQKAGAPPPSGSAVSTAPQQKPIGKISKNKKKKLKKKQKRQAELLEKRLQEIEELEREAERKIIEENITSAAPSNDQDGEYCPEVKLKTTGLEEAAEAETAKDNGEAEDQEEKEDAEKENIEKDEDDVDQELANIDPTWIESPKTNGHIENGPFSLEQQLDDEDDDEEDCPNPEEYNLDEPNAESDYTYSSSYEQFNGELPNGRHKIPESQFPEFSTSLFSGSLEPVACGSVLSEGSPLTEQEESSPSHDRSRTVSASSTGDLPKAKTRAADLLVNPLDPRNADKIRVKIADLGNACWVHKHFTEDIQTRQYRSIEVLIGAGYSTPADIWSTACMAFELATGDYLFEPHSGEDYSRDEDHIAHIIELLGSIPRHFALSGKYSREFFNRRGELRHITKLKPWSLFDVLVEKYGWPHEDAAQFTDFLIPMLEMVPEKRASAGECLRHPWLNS"}, "[37]": {"biological_target": "TNK2 (human) (UniProt Q07912)"}, "[38]": {"biological_target": "MAST1 (human) (UniProt Q9Y2H9)"}, "[39]": {"biological_target": "RPS6KA4 KD1 (human) (UniProt O75676)"}, "[40]": {"biological_target": "MAPK14 (human) (UniProt Q16539)", "sequence (Q16539 whole entry, looked up)": "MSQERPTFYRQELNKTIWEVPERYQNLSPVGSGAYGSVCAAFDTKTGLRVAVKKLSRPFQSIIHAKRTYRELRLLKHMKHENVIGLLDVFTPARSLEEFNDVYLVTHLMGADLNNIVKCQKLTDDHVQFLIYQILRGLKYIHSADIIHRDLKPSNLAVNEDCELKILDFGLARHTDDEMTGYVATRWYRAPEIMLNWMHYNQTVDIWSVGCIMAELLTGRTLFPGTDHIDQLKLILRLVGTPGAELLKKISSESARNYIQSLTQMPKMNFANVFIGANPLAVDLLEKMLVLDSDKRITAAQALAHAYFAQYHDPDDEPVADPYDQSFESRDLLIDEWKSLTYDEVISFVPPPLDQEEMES"}},
  "data": [
    {"molecule": "Cc1ccc(NC(=O)c2cccc(C(C)(C)C#N)c2)cc1Nc1ccc2ncn(C)c(=O)c2c1", "values": [
      {"measurement": "kinase still bound, per cent of control", "setting": "[1]", "value": 100, "unit": "%"},
      {"measurement": "kinase still bound, per cent of control", "setting": "[2]", "value": 89, "unit": "%"},
      {"measurement": "kinase still bound, per cent of control", "setting": "[3]", "value": 3.1, "unit": "%"},
      {"measurement": "kinase still bound, per cent of control", "setting": "[4]", "value": 100, "unit": "%"},
      {"measurement": "kinase still bound, per cent of control", "setting": "[5]", "value": 100, "unit": "%"},
      {"measurement": "kinase still bound, per cent of control", "setting": "[6]", "value": 38, "unit": "%"},
      {"measurement": "kinase still bound, per cent of control", "setting": "[7]", "value": 91, "unit": "%"},
      {"measurement": "kinase still bound, per cent of control", "setting": "[8]", "value": 100, "unit": "%"},
      {"measurement": "kinase still bound, per cent of control", "setting": "[9]", "value": 91, "unit": "%"},
      {"measurement": "kinase still bound, per cent of control", "setting": "[10]", "value": 63, "unit": "%"},
      {"measurement": "kinase still bound, per cent of control", "setting": "[11]", "value": 100, "unit": "%"},
      {"measurement": "kinase still bound, per cent of control", "setting": "[12]", "value": 85, "unit": "%"},
      {"measurement": "kinase still bound, per cent of control", "setting": "[13]", "value": 100, "unit": "%"},
      {"measurement": "kinase still bound, per cent of control", "setting": "[14]", "value": 100, "unit": "%"},
      {"measurement": "kinase still bound, per cent of control", "setting": "[15]", "value": 100, "unit": "%"},
      {"measurement": "kinase still bound, per cent of control", "setting": "[16]", "value": 1, "unit": "%"},
      {"measurement": "kinase still bound, per cent of control", "setting": "[17]", "value": 100, "unit": "%"},
      {"measurement": "kinase still bound, per cent of control", "setting": "[18]", "value": 100, "unit": "%"},
      {"measurement": "kinase still bound, per cent of control", "setting": "[19]", "value": 81, "unit": "%"},
      {"measurement": "kinase still bound, per cent of control", "setting": "[20]", "value": 85, "unit": "%"},
      {"measurement": "kinase still bound, per cent of control", "setting": "[21]", "value": 100, "unit": "%"},
      {"measurement": "kinase still bound, per cent of control", "setting": "[22]", "value": 66, "unit": "%"},
      {"measurement": "kinase still bound, per cent of control", "setting": "[23]", "value": 100, "unit": "%"},
      {"measurement": "kinase still bound, per cent of control", "setting": "[24]", "value": 94, "unit": "%"},
      {"measurement": "kinase still bound, per cent of control", "setting": "[25]", "value": 100, "unit": "%"},
      {"measurement": "kinase still bound, per cent of control", "setting": "[26]", "value": 93, "unit": "%"},
      {"measurement": "kinase still bound, per cent of control", "setting": "[27]", "value": 2.1, "unit": "%"},
      {"measurement": "kinase still bound, per cent of control", "setting": "[28]", "value": 100, "unit": "%"},
      {"measurement": "kinase still bound, per cent of control", "setting": "[29]", "value": 87, "unit": "%"},
      {"measurement": "kinase still bound, per cent of control", "setting": "[30]", "value": 95, "unit": "%"},
      {"measurement": "kinase still bound, per cent of control", "setting": "[31]", "value": 99, "unit": "%"},
      {"measurement": "kinase still bound, per cent of control", "setting": "[32]", "value": 4.6, "unit": "%"},
      {"measurement": "kinase still bound, per cent of control", "setting": "[33]", "value": 100, "unit": "%"},
      {"measurement": "kinase still bound, per cent of control", "setting": "[34]", "value": 85, "unit": "%"},
      {"measurement": "kinase still bound, per cent of control", "setting": "[35]", "value": 100, "unit": "%"},
      {"measurement": "kinase still bound, per cent of control", "setting": "[36]", "value": 100, "unit": "%"},
      {"measurement": "kinase still bound, per cent of control", "setting": "[37]", "value": 100, "unit": "%"},
      {"measurement": "kinase still bound, per cent of control", "setting": "[38]", "value": 100, "unit": "%"},
      {"measurement": "kinase still bound, per cent of control", "setting": "[39]", "value": 100, "unit": "%"},
      {"measurement": "kinase still bound, per cent of control", "setting": "[40]", "value": 0, "unit": "%"}
    ]},
    {"molecule": "Cc1cc([C@@H](C)Nc2ccccc2C(=O)O)c2nc(N3CCOCC3)cc(=O)n2c1", "values": [
      {"measurement": "kinase still bound, per cent of control", "setting": "[1]", "value": 83, "unit": "%"},
      {"measurement": "kinase still bound, per cent of control", "setting": "[2]", "value": 89, "unit": "%"},
      {"measurement": "kinase still bound, per cent of control", "setting": "[3]", "value": 100, "unit": "%"},
      {"measurement": "kinase still bound, per cent of control", "setting": "[4]", "value": 63, "unit": "%"},
      {"measurement": "kinase still bound, per cent of control", "setting": "[5]", "value": 95, "unit": "%"},
      {"measurement": "kinase still bound, per cent of control", "setting": "[6]", "value": 98, "unit": "%"},
      {"measurement": "kinase still bound, per cent of control", "setting": "[7]", "value": 57, "unit": "%"},
      {"measurement": "kinase still bound, per cent of control", "setting": "[8]", "value": 100, "unit": "%"},
      {"measurement": "kinase still bound, per cent of control", "setting": "[9]", "value": 99, "unit": "%"},
      {"measurement": "kinase still bound, per cent of control", "setting": "[10]", "value": 100, "unit": "%"},
      {"measurement": "kinase still bound, per cent of control", "setting": "[11]", "value": 83, "unit": "%"},
      {"measurement": "kinase still bound, per cent of control", "setting": "[12]", "value": 82, "unit": "%"},
      {"measurement": "kinase still bound, per cent of control", "setting": "[13]", "value": 70, "unit": "%"},
      {"measurement": "kinase still bound, per cent of control", "setting": "[14]", "value": 100, "unit": "%"},
      {"measurement": "kinase still bound, per cent of control", "setting": "[15]", "value": 100, "unit": "%"},
      {"measurement": "kinase still bound, per cent of control", "setting": "[16]", "value": 99, "unit": "%"},
      {"measurement": "kinase still bound, per cent of control", "setting": "[17]", "value": 100, "unit": "%"},
      {"measurement": "kinase still bound, per cent of control", "setting": "[18]", "value": 95, "unit": "%"},
      {"measurement": "kinase still bound, per cent of control", "setting": "[19]", "value": 98, "unit": "%"},
      {"measurement": "kinase still bound, per cent of control", "setting": "[20]", "value": 100, "unit": "%"},
      {"measurement": "kinase still bound, per cent of control", "setting": "[21]", "value": 100, "unit": "%"},
      {"measurement": "kinase still bound, per cent of control", "setting": "[22]", "value": 97, "unit": "%"},
      {"measurement": "kinase still bound, per cent of control", "setting": "[23]", "value": 89, "unit": "%"},
      {"measurement": "kinase still bound, per cent of control", "setting": "[24]", "value": 88, "unit": "%"},
      {"measurement": "kinase still bound, per cent of control", "setting": "[25]", "value": 58, "unit": "%"},
      {"measurement": "kinase still bound, per cent of control", "setting": "[26]", "value": 90, "unit": "%"},
      {"measurement": "kinase still bound, per cent of control", "setting": "[27]", "value": 96, "unit": "%"},
      {"measurement": "kinase still bound, per cent of control", "setting": "[28]", "value": 96, "unit": "%"},
      {"measurement": "kinase still bound, per cent of control", "setting": "[29]", "value": 100, "unit": "%"},
      {"measurement": "kinase still bound, per cent of control", "setting": "[30]", "value": 100, "unit": "%"},
      {"measurement": "kinase still bound, per cent of control", "setting": "[31]", "value": 75, "unit": "%"},
      {"measurement": "kinase still bound, per cent of control", "setting": "[32]", "value": 100, "unit": "%"},
      {"measurement": "kinase still bound, per cent of control", "setting": "[33]", "value": 100, "unit": "%"},
      {"measurement": "kinase still bound, per cent of control", "setting": "[34]", "value": 100, "unit": "%"},
      {"measurement": "kinase still bound, per cent of control", "setting": "[35]", "value": 96, "unit": "%"},
      {"measurement": "kinase still bound, per cent of control", "setting": "[36]", "value": 85, "unit": "%"},
      {"measurement": "kinase still bound, per cent of control", "setting": "[37]", "value": 100, "unit": "%"},
      {"measurement": "kinase still bound, per cent of control", "setting": "[38]", "value": 100, "unit": "%"},
      {"measurement": "kinase still bound, per cent of control", "setting": "[39]", "value": 94, "unit": "%"},
      {"measurement": "kinase still bound, per cent of control", "setting": "[40]", "value": 97, "unit": "%"}
    ]}
  ]
}
